Where “and” joins values, the source holds several entries; their conditions need not be identical. Identical values can stand only once. Toxic doses and inconclusive results are not listed.
Tested on: L1210 leukemia ip in BDF1 mice, survival T/C
Assay: NCI In Vivo Anticancer Drug Screen. Data for tumor model L1210 Leukemia (intraperitoneal) in B6D2F1 (BDF1) mice
Conditions: endpoint: mean survival time, higher = longer survival
Procedure, shortened: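 Mice bearing the transplanted tumor received compound or vehicle. Survival of the treated group was divided by that of the vehicle-treated control group to give the ratio.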

[1] = dose: 100.0 mg/kg/injection, schedule: Q01DX001 (ip), vehicle: carboxymethylcellulose (CMC)
[2] = dose: 100.0 mg/kg/injection, schedule: Q01DX009 (ip), vehicle: saline with Tween-80
[3] = dose: 200.0 mg/kg/injection, schedule: Q01DX009 (ip), vehicle: saline with Tween-80
[4] = dose: 400.0 mg/kg/injection, schedule: Q01DX009 (ip), vehicle: saline with Tween-80
[5] = dose: 100.0 mg/kg/injection, schedule: Q01DX009 (ip), vehicle: Klucel (hydroxypropylcellulose) (HPC)
[6] = dose: 200.0 mg/kg/injection, schedule: Q01DX009 (ip), vehicle: Klucel (hydroxypropylcellulose) (HPC)

`CC(C)=CC(=O)C1C(=O)c2ccccc2C1=O` was tested, and the T/C (dose: 50.0 mg/kg/injection, schedule: Q01DX001 (ip), vehicle: carboxymethylcellulose (CMC)) was 96 % of control and the T/C [1] was 90 % of control.
With `CC(=O)C(C)(C)O` the T/C [2] was 90 % of control, the T/C [3] was 87 % of control and the T/C [4] was 92 % of control.
With `CN1CCSC1=S` the T/C (dose: 50.0 mg/kg/injection, schedule: Q01DX009 (ip), vehicle: Klucel (hydroxypropylcellulose) (HPC)) was 92 % of control, the T/C [5] was 100 % of control and the T/C (dose: 100.0 mg/kg/injection, schedule: Q04DX003 (ip), vehicle: Klucel (hydroxypropylcellulose) (HPC)) was 105 % of control. For the same molecule, the T/C [6] was 105 % of control, the T/C (dose: 200.0 mg/kg/injection, schedule: Q04DX003 (ip), vehicle: Klucel (hydroxypropylcellulose) (HPC)) was 105 % of control and the T/C (dose: 400.0 mg/kg/injection, schedule: Q04DX003 (ip), vehicle: Klucel (hydroxypropylcellulose) (HPC)) was 94 % of control.
With `CN(C)C1CCC(N=Nc2cc([N+](=O)[O-])ccc2C(=O)O)CC1` (stereo not drawn) the T/C (dose: 75.0 mg/kg/injection, schedule: Q01DX001 (ip), vehicle: acetone) was 105 % of control, the T/C (dose: 150.0 mg/kg/injection, schedule: Q01DX001 (ip), vehicle: acetone) was 97 % of control and the T/C (dose: 300.0 mg/kg/injection, schedule: Q01DX001 (ip), vehicle: acetone) was 90 % of control.
For `CC(C)NC(=O)Oc1ccc(Br)cc1Br`, the T/C [5] was 109 % of control, the T/C [6] was 104 % of control and the T/C (dose: 400.0 mg/kg/injection, schedule: Q01DX009 (ip), vehicle: Klucel (hydroxypropylcellulose) (HPC)) was 113 % of control.
`Cc1cc(NC(=O)NCCCCCCNC(=O)Nc2cc(C)on2)no1` was tested, and the T/C (dose: 100.0 mg/kg/injection, schedule: Q01DX009 (ip), vehicle: other) was 89 % of control, the T/C (dose: 200.0 mg/kg/injection, schedule: Q01DX009 (ip), vehicle: other) was 111 % of control and the T/C (dose: 400.0 mg/kg/injection, schedule: Q01DX009 (ip), vehicle: other) was 100 % of control.
In the case of `CC1(C)OC2OC(CO)C(O)C2O1` (stereo not drawn), the T/C (dose: 100.0 mg/kg/injection, schedule: Q01DX001 (ip), vehicle: saline) is reported as 101 % of control, the T/C (dose: 200.0 mg/kg/injection, schedule: Q01DX001 (ip), vehicle: saline) is reported as 97 % of control and the T/C (dose: 400.0 mg/kg/injection, schedule: Q01DX001 (ip), vehicle: saline) is reported as 98 % of control.
With `CC(=O)[C@H]1CC[C@H]2[C@@H]3CCC4=CC(=O)CC[C@]4(C)[C@H]3CC[C@]12C` the T/C (dose: 125.0 mg/kg/injection, schedule: Q01DX Z (sc), vehicle: steriod suspending solution) was 97 % of control, the T/C (dose: 250.0 mg/kg/injection, schedule: Q01DX Z (sc), vehicle: steriod suspending solution) was 91 % of control and the T/C (dose: 500.0 mg/kg/injection, schedule: Q01DX Z (sc), vehicle: steriod suspending solution) was 96 % of control. The T/C (dose: 1000.0 mg/kg/injection, schedule: Q01DX Z (sc), vehicle: steriod suspending solution) was 92 % of control.
With `CC(C)(C)NC(=O)C(Cl)(Cl)Cl` the T/C (dose: 31.25 mg/kg/injection, schedule: Q01DX009 (ip), vehicle: Klucel (hydroxypropylcellulose) (HPC)) was 98 % of control, the T/C (dose: 62.5 mg/kg/injection, schedule: Q01DX009 (ip), vehicle: Klucel (hydroxypropylcellulose) (HPC)) was 107 % of control and the T/C (dose: 125.0 mg/kg/injection, schedule: Q01DX009 (ip), vehicle: Klucel (hydroxypropylcellulose) (HPC)) was 109 % of control. For the same molecule, the T/C (dose: 250.0 mg/kg/injection, schedule: Q01DX009 (ip), vehicle: Klucel (hydroxypropylcellulose) (HPC)) was 94 % of control.
`O=C(/C=C/c1ccccc1)c1ccccc1O` was tested, and the T/C [2] was 89 % of control, the T/C (dose: 100.0 mg/kg/injection, schedule: Q04DX003 (ip), vehicle: saline with Tween-80) was 100 % of control and the T/C [3] was 86 % of control. For the same molecule, the T/C (dose: 200.0 mg/kg/injection, schedule: Q04DX003 (ip), vehicle: saline with Tween-80) was 98 % of control, the T/C [4] was 94 % of control and the T/C (dose: 400.0 mg/kg/injection, schedule: Q04DX003 (ip), vehicle: saline with Tween-80) was 98 % of control.
With `CCN(CC)CCN(C)CC(=O)Nc1ccccc1C` the T/C (dose: 75.0 mg/kg/injection, schedule: Q01DX001 (ip), vehicle: saline) was 100 % of control, the T/C (dose: 150.0 mg/kg/injection, schedule: Q01DX001 (ip), vehicle: saline) was 103 % of control and the T/C (dose: 300.0 mg/kg/injection, schedule: Q01DX001 (ip), vehicle: saline) was 101 % of control.
`CC(C)OC(C(=O)O)c1ccccc1` (stereo not drawn) was tested, and the T/C [1] was 101 % of control and the T/C (dose: 200.0 mg/kg/injection, schedule: Q01DX001 (ip), vehicle: carboxymethylcellulose (CMC)) was 101 % of control.
`C=C(C)C(=O)OC` (tested in a mixture with another compound) was tested, and the T/C (dose: 50.0 mg/kg/injection, schedule: Q04DX002 (ip), vehicle: Klucel (hydroxypropylcellulose) (HPC)) was 107 % of control, the T/C (dose: 75.0 mg/kg/injection, schedule: Q01DX001 (ip), vehicle: other) was 96 % of control and the T/C (dose: 100.0 mg/kg/injection, schedule: Q04DX002 (ip), vehicle: Klucel (hydroxypropylcellulose) (HPC)) was 101 % of control. The T/C (dose: 150.0 mg/kg/injection, schedule: Q01DX001 (ip), vehicle: other) was 94 % of control, the T/C (dose: 200.0 mg/kg/injection, schedule: Q04DX002 (ip), vehicle: Klucel (hydroxypropylcellulose) (HPC)) was 93 % of control and the T/C (dose: 300.0 mg/kg/injection, schedule: Q01DX001 (ip), vehicle: other) was 91 % of control. The T/C (dose: 400.0 mg/kg/injection, schedule: Q04DX002 (ip), vehicle: Klucel (hydroxypropylcellulose) (HPC)) was 90 % of control.
In the case of `Nc1nncs1`, the T/C (dose: 3.75 mg/kg/injection, schedule: Q01DX015 (ip), vehicle: saline) is reported as 103 % of control, the T/C (dose: 7.0 mg/kg/injection, schedule: Q03HX032 (ip), vehicle: saline) is reported as 107 % of control and the T/C (dose: 7.5 mg/kg/injection, schedule: Q01DX015 (ip), vehicle: saline) is reported as 106 % of control. For the same molecule, the T/C (dose: 7.5 mg/kg/injection, schedule: Q01DX Z (ip), vehicle: carboxymethylcellulose (CMC)) was 96 % of control, the T/C (dose: 11.0 mg/kg/injection, schedule: Q03HX032 (ip), vehicle: saline) was 119 % of control and the T/C (dose: 12.5 mg/kg/injection, schedule: Q01DX009 (ip), vehicle: saline) was 120 % of control. For the same molecule, the T/C (dose: 15.0 mg/kg/injection, schedule: Q01DX015 (ip), vehicle: saline) was 109 % of control, the T/C (dose: 15.0 mg/kg/injection, schedule: Q01DX Z (ip), vehicle: carboxymethylcellulose (CMC)) was 114 % of control and the T/C (dose: 16.0 mg/kg/injection, schedule: Q03HX032 (ip), vehicle: saline) was 108 % of control. The T/C (dose: 20.0 mg/kg/injection, schedule: Q01DX Z (ip), vehicle: carboxymethylcellulose (CMC)) was 116 % of control, the T/C (dose: 24.0 mg/kg/injection, schedule: Q03HX032 (ip), vehicle: saline) was 124 % of control and the T/C (dose: 25.0 mg/kg/injection, schedule: Q01DX009 (ip), vehicle: saline) was 106 % of control. The T/C (dose: 25.0 mg/kg/injection, schedule: Q01DX Z (ip), vehicle: carboxymethylcellulose (CMC)) was 112 % of control, the T/C (dose: 27.0 mg/kg/injection, schedule: Q01DX015 (ip), vehicle: saline) was 123 % of control and the T/C (dose: 32.0 mg/kg/injection, schedule: Q01DX009 (ip), vehicle: Klucel (hydroxypropylcellulose) (HPC)) was 151 % of control. The T/C (dose: 36.0 mg/kg/injection, schedule: Q03HX032 (ip), vehicle: saline) was 156 % of control, the T/C (dose: 50.0 mg/kg/injection, schedule: Q01DX009 (ip), vehicle: saline) was 95 % of control and the T/C (dose: 60.0 mg/kg/injection, schedule: Q01DX015 (ip), vehicle: saline) was 151 % of control and 165 % of control and 166 % of control. For the same molecule, the T/C (dose: 64.0 mg/kg/injection, schedule: Q01DX009 (ip), vehicle: Klucel (hydroxypropylcellulose) (HPC)) was 94 % of control and 112 % of control, the T/C (dose: 90.0 mg/kg/injection, schedule: Q01DX015 (ip), vehicle: saline) was 168 % of control and the T/C (dose: 120.0 mg/kg/injection, schedule: Q01DX015 (ip), vehicle: saline) was 171 % of control. The T/C (dose: 128.0 mg/kg/injection, schedule: Q01DX009 (ip), vehicle: Klucel (hydroxypropylcellulose) (HPC)) was 88 % of control and 90 % of control, the T/C (dose: 135.0 mg/kg/injection, schedule: Q01DX015 (ip), vehicle: saline) was 151 % of control and the T/C (dose: 240.0 mg/kg/injection, schedule: Q01DX015 (ip), vehicle: saline) was 116 % of control. For the same molecule, the T/C (dose: 270.0 mg/kg/injection, schedule: Q01DX001 (ip), vehicle: saline) was 120 % of control, the T/C (dose: 480.0 mg/kg/injection, schedule: Q01DX015 (ip), vehicle: saline) was 107 % of control and the T/C (dose: 500.0 mg/kg/injection, schedule: Q04DX003 (ip), vehicle: saline) was 100 % of control. For the same molecule, the T/C (dose: 600.0 mg/kg/injection, schedule: Q01DX001 (ip), vehicle: saline) was 124 % of control and the T/C (dose: 1000.0 mg/kg/injection, schedule: Q04DX003 (ip), vehicle: saline) was 163 % of control.
